US20100216749A1, “Combination Therapy for Neuroprotection” (S.H. PHARMA., LTD, priority 2007, published 2010)
“And” between values parts separate entries of the source, which are not always exact repeats. Equal entries are not always repeated.

Experiments:
[1] = tested on: middle cerebral artery occlusion (MCAO) stroke animal model; test: Cerebral infarction volume by TTC staining of brain sections after 1 h MCAO/reperfusion; format: in vivo, rat; conditions: for concentration at which the size of cerebral infarction was inhibited most effectively: i.v. 1, 2, 5, 10 and 20 mg/kg; for cerebral infarction inhibited by: 4 hours after reperfusion (FIG. 11)
[2] = tested on: middle cerebral artery occlusion (MCAO) stroke animal model; test: Rota-rod test (motor skill) after MCAO/reperfusion; conditions: i.v. 5 mg/kg; for motor skill recovered to, by normal motor skill: 6 hours after MCAO/reperfusion (FIG. 9)
Protocol: Motor skill of a rat damaged by MCAO was investigated by measuring retention time on Rota-rod (Rota-rod test).
Retention time of each rat on Rota-rod at 5 rpm was measured for 24 hours after MCAO for 1 hour. Next, each rat was also forced to stay on Rota-rod operating at the speeds of 10 rpm and 15 rpm and retention time of each rat was measured at one hour interval. […] The points herein were obtained from repeated experiments, which were performed at 1 hour interval at the speeds of 10 rpm and 15 rpm.

[3] = tested on: middle cerebral artery occlusion (MCAO) stroke animal model; test: Evaluation of neurologic deficit (static reflex test and forelimb placing test) after MCAO/reperfusion; format: in vivo, rat; conditions: for neuronal damage / motor skill deficit improved: administered 6 hours after MCAO/reperfusion, Example 1 (FIG. 10)
Protocol: Forelimb placing was evaluated by the method described (0: immediate and complete placing, 1: incomplete and/or delayed placing, 2: no placing) (De Ryck M. et al., Stroke 20; 1388-1390). Points of static reflex and forelimb placing of each animal were summed.

[4] = tested on: stroke animal model; conditions: cited from earlier work
[5] = i.v. 2.5 mg/kg each drug, 6 hours after reperfusion (Examples 9-12)
[6] = i.v. 5 mg/kg each drug, 6 hours after reperfusion (Examples 3-8)
[7] = 6 hours after reperfusion (FIG. 23)
[8] = i.v. 2.5 mg/kg each drug, 6 hours after reperfusion (Examples 9-12), 2.5 mg/kg
[9] = administered 4 hours after neuronal damage, Example 2 (FIG. 13)
[10] = administered 6 hours after neuronal damage (Examples 4-7)

In the case of CC(=O)Oc1cc(C(F)(F)F)ccc1C(=O)O [2-acetoxy-4-(trifluoromethyl)benzoic acid], the “volume of cerebral infarction reduced by” value [1, 5] is reported as 23%.
For O=C(O)c1ccc(C(F)(F)F)cc1O [2-hydroxy-4-trifluoromethylbenzoic acid], the “volume of cerebral infarction reduced by” value [1, 5] was 30%.
In the case of CC(=O)Oc1ccccc1C(=O)O [acetylsalicylic acid], the “motor skill recovered to, by normal motor skill” value [2] is reported as 30% and the “neuronal damage / motor skill deficit improved” value [3] is reported as “very weak”.
For CNCCC(Oc1ccc(C(F)(F)F)cc1)c1ccccc1 (centres unmarked) [fluoxetine chloride, N-methyl-[4-(trifluoromethyl)phenoxy]benzenepropaneamine], the “volume of cerebral infarction reduced by” value [1, 6] was 59% and the “concentration at which the size of cerebral infarction was inhibited most effectively” value [1, 7] was 5 mg/kg.
With CCNC(=O)C(C)=O [pyruvoylaminoethane] the “volume of cerebral infarction reduced by” value [1, 8] was 20% and 25%.
In the case of “chloro-2-hydroxy-5-(2,3,5,6-tetrafluoro-4-(trifluoromethyl)benzylamino)benzoate”, the “cerebral infarction inhibited by” value ([1]; i.v. 5 mg/kg each drug) is reported as 30% and the “neuronal damage improved / neurologic deficit recovered” value [3, 9] is reported as “very weak”.
With “chloro-2-hydroxy-5-(2-(2,4,5-trichlorophenoxy)ethylamino)benzoic acid” the “volume of cerebral infarction reduced by” value [1, 6] was 64% and the “neuronal damage improved / neurologic deficit recovered” value [3, 10] was “very weak”.
In the case of “chloro-2-hydroxy-5-(2-(4-methoxyphenoxy)ethylamino)benzoic acid”, the “volume of cerebral infarction reduced by” value [1, 6] is reported as 53% and the “neuronal damage improved / neurologic deficit recovered” value [3, 10] is reported as “very weak”.
With “chloro-2-hydroxy-5-(4-(trifluoromethyl)phenylethylamino)benzoate” the “volume of cerebral infarction reduced by” value [1, 6] was 58%.
For “chloro-5-(2-(2,4-dichlorophenoxy)ethylamino)-2-hydroxybenzoic acid”, the “volume of cerebral infarction reduced by” value [1, 6] was 61% and the “neuronal damage improved / neurologic deficit recovered” value [3, 10] was “very weak”.
In the case of “chloro-5-(2-(4-chlorophenoxy)ethylamino)-2-hydroxybenzoic acid”, the “volume of cerebral infarction reduced by” value [1, 6] is reported as 55% and the “neuronal damage improved / neurologic deficit recovered” value [3, 10] is reported as “very weak”.
In the case of ethyl pyruvate (pyruvoyloxyethane) [EP], the “period spent on Rota-rod” value ([2]; 6 hours after MCAO/reperfusion (FIG. 4)) is listed as “significantly longer period on Rota-rod”, the “motor skill recovered to, by normal motor skill” value [2] is listed as 70% and the “size of infarction reduced” value ([4]; administered 24 hours after ischemia-reperfusion) is listed as “approximately 20%”. The “size of infarction reduced to” value ([4]; administered into the abdominal cavity 12 hours after ischemia-reperfusion) was “less than 50%”, the “infarcted regions (TTC staining) compared with the control group” value ([1]; 5 mg/kg, 6 hours after reperfusion (FIG. 1)) was “significantly decreased” and the “volume of ischemia region” value ([1]; i.v. 1 mg/kg, 6 hours after reperfusion, 1 h MCAO (FIG. 2)) was “not changed”. For the same compound, the “cerebral infarction inhibited by” value ([1]; i.v. 5 mg/kg each drug) was 48%, the “volume of cerebral infarction reduced by” value [1, 6] was 66% and the “infarction volume reduced to” value ([1]; i.v. 5 mg/kg, 30 minutes after reperfusion (FIG. 3)) was 17.5%. The “infarction volume reduced to” value ([1]; i.v. 5 mg/kg, 30 minutes before reperfusion (FIG. 3)) was 9.0%, the “infarction volume reduced to” value ([1]; i.v. 5 mg/kg, 6 hours after reperfusion (FIG. 3)) was 34.0% and the “volume of ischemia region reduced to, by the control animal” value ([1]; i.v. 5 mg/kg, 6 hours after reperfusion, 1 h MCAO (FIG. 2)) was 33.6%. The “infarction volume reduced to” value ([1]; i.v. 5 mg/kg, 9 hours after reperfusion (FIG. 3)) was 58.7%, the “infarction volume reduced to” value ([1]; i.v. 5 mg/kg, 12 hours after reperfusion (FIG. 3)) was 58.0% and the “infarction inhibiting effect when concentration increased” value ([1]; i.v. 10 mg/kg each versus 5 mg/kg, 6 hours after reperfusion (FIG. 23)) was “the effect was not increased”. For the same compound, the “volume of ischemia region reduced to, by the control animal” value ([1]; i.v. 10 mg/kg, 6 hours after reperfusion, 1 h MCAO (FIG. 2)) was 41.7%, the “volume of ischemia region reduced to, by the control animal” value ([1]; i.v. 20 mg/kg, 6 hours after reperfusion, 1 h MCAO (FIG. 2)) was 61.6% and the “concentration at which the size of cerebral infarction was inhibited most effectively” value [1, 7] was 5 mg/kg. The “neuronal damage improved / neurologic deficit recovered” value [3, 9] was 40%, the “neuronal damage / motor skill deficit improved” value [3] was 60% and the “neuronal damage improved / neurologic deficit recovered” value [3, 10] was 40%. The “neurologic deficit after MCAO/reperfusion” value ([3]; two days after MCAO/reperfusion (FIG. 5)) was “suppress neurologic deficit”.
In the case of pyruvoylamininediethane, the “volume of cerebral infarction reduced by” value [1, 8] is reported as 40% and 31%.
